Numbers after ± are expanded uncertainties.
Assay: refractive index (other wavelength) (dimensionless); xn = mol fraction of the nth substance listed
Conditions: 308.15 K, 101 kPa, Liquid, Standard Abbe refractometry

CC(C)OC(C)C [diisopropyl ether] + CO
refractive index (Wavelength=40.47 nm, x2 = 0.0822): 1.37037 ± 0.00042
refractive index (Wavelength=40.47 nm, x2 = 0.1171): 1.37018 ± 0.00041
refractive index (Wavelength=40.47 nm, x2 = 0.1271): 1.37021 ± 0.00041
refractive index (Wavelength=40.47 nm, x2 = 0.1827): 1.36993 ± 0.0004
refractive index (Wavelength=40.47 nm, x2 = 0.2162): 1.36973 ± 0.0004
refractive index (Wavelength=40.47 nm, x2 = 0.251): 1.36934 ± 0.0004
refractive index (Wavelength=40.47 nm, x2 = 0.3298): 1.36925 ± 0.00038
refractive index (Wavelength=40.47 nm, x2 = 0.3577): 1.36902 ± 0.00038
refractive index (Wavelength=40.47 nm, x2 = 0.4497): 1.36699 ± 0.00037
refractive index (Wavelength=40.47 nm, x2 = 0.4525): 1.36743 ± 0.00037
refractive index (Wavelength=40.47 nm, x2 = 0.522): 1.36511 ± 0.00035
refractive index (Wavelength=40.47 nm, x2 = 0.5543): 1.36433 ± 0.00035
refractive index (Wavelength=40.47 nm, x2 = 0.609): 1.36183 ± 0.00034
refractive index (Wavelength=40.47 nm, x2 = 0.6529): 1.36027 ± 0.00034
refractive index (Wavelength=40.47 nm, x2 = 0.7504): 1.35626 ± 0.00033
refractive index (Wavelength=40.47 nm, x2 = 0.804): 1.35193 ± 0.00033
refractive index (Wavelength=40.47 nm, x2 = 0.807): 1.3517 ± 0.00033
refractive index (Wavelength=40.47 nm, x2 = 0.8727): 1.34787 ± 0.00032
refractive index (Wavelength=40.47 nm, x2 = 0.9233): 1.33956 ± 0.00033
refractive index (Wavelength=40.47 nm, x2 = 0.9253): 1.34157 ± 0.00033
refractive index (Wavelength=40.47 nm, x2 = 0.9527): 1.33839 ± 0.00032
refractive index (Wavelength=40.47 nm, x2 = 0.9773): 1.33485 ± 0.00032
refractive index (Wavelength=40.47 nm, x2 = 0.989): 1.33356 ± 0.00032
refractive index (Wavelength=40.47 nm, x2 = 0.9964): 1.33249 ± 0.00032
refractive index (Wavelength=435.8 nm, x2 = 0): 1.36739 ± 0.00044
refractive index (Wavelength=435.8 nm, x2 = 0.0424): 1.36729 ± 0.00043
refractive index (Wavelength=435.8 nm, x2 = 0.082): 1.36727 ± 0.00042
refractive index (Wavelength=435.8 nm, x2 = 0.0822): 1.36742 ± 0.00042
refractive index (Wavelength=435.8 nm, x2 = 0.1171): 1.36725 ± 0.00041
refractive index (Wavelength=435.8 nm, x2 = 0.1271): 1.36728 ± 0.00041
refractive index (Wavelength=435.8 nm, x2 = 0.1827): 1.367 ± 0.0004
refractive index (Wavelength=435.8 nm, x2 = 0.2162): 1.36681 ± 0.0004
refractive index (Wavelength=435.8 nm, x2 = 0.251): 1.36642 ± 0.00039
refractive index (Wavelength=435.8 nm, x2 = 0.3298): 1.36633 ± 0.00038
refractive index (Wavelength=435.8 nm, x2 = 0.3577): 1.36611 ± 0.00038
refractive index (Wavelength=435.8 nm, x2 = 0.4497): 1.36412 ± 0.00037
refractive index (Wavelength=435.8 nm, x2 = 0.4525): 1.36455 ± 0.00037
refractive index (Wavelength=435.8 nm, x2 = 0.522): 1.3623 ± 0.00035
refractive index (Wavelength=435.8 nm, x2 = 0.5543): 1.36152 ± 0.00035
refractive index (Wavelength=435.8 nm, x2 = 0.609): 1.35906 ± 0.00034
refractive index (Wavelength=435.8 nm, x2 = 0.6529): 1.35752 ± 0.00034
refractive index (Wavelength=435.8 nm, x2 = 0.7504): 1.35356 ± 0.00033
refractive index (Wavelength=435.8 nm, x2 = 0.804): 1.34931 ± 0.00033
refractive index (Wavelength=435.8 nm, x2 = 0.807): 1.34907 ± 0.00033
refractive index (Wavelength=435.8 nm, x2 = 0.8727): 1.3453 ± 0.00032
refractive index (Wavelength=435.8 nm, x2 = 0.9233): 1.33712 ± 0.00033
refractive index (Wavelength=435.8 nm, x2 = 0.9253): 1.33909 ± 0.00033
refractive index (Wavelength=435.8 nm, x2 = 0.9527): 1.33598 ± 0.00032
refractive index (Wavelength=435.8 nm, x2 = 0.9773): 1.3325 ± 0.00032
refractive index (Wavelength=435.8 nm, x2 = 0.989): 1.33124 ± 0.00032
refractive index (Wavelength=435.8 nm, x2 = 0.9964): 1.33018 ± 0.00032
refractive index (Wavelength=486.1 nm, x2 = 0): 1.36407 ± 0.00044
refractive index (Wavelength=486.1 nm, x2 = 0.0423): 1.36395 ± 0.00043
refractive index (Wavelength=486.1 nm, x2 = 0.0424): 1.36404 ± 0.00043
refractive index (Wavelength=486.1 nm, x2 = 0.082): 1.36394 ± 0.00042
refractive index (Wavelength=486.1 nm, x2 = 0.0822): 1.36409 ± 0.00042
refractive index (Wavelength=486.1 nm, x2 = 0.1171): 1.36394 ± 0.00041
refractive index (Wavelength=486.1 nm, x2 = 0.1271): 1.36394 ± 0.00041
refractive index (Wavelength=486.1 nm, x2 = 0.1827): 1.36368 ± 0.0004
refractive index (Wavelength=486.1 nm, x2 = 0.2162): 1.36351 ± 0.0004
refractive index (Wavelength=486.1 nm, x2 = 0.251): 1.36312 ± 0.00039
refractive index (Wavelength=486.1 nm, x2 = 0.3298): 1.36304 ± 0.00038
refractive index (Wavelength=486.1 nm, x2 = 0.3577): 1.36275 ± 0.00038
refractive index (Wavelength=486.1 nm, x2 = 0.4497): 1.36085 ± 0.00037
refractive index (Wavelength=486.1 nm, x2 = 0.4525): 1.36128 ± 0.00037
refractive index (Wavelength=486.1 nm, x2 = 0.522): 1.35907 ± 0.00035
refractive index (Wavelength=486.1 nm, x2 = 0.5543): 1.35831 ± 0.00035
refractive index (Wavelength=486.1 nm, x2 = 0.609): 1.35589 ± 0.00034
refractive index (Wavelength=486.1 nm, x2 = 0.6529): 1.35437 ± 0.00034
refractive index (Wavelength=486.1 nm, x2 = 0.7504): 1.35046 ± 0.00033
refractive index (Wavelength=486.1 nm, x2 = 0.804): 1.34626 ± 0.00033
refractive index (Wavelength=486.1 nm, x2 = 0.807): 1.34606 ± 0.00033
refractive index (Wavelength=486.1 nm, x2 = 0.8727): 1.34228 ± 0.00032
refractive index (Wavelength=486.1 nm, x2 = 0.9233): 1.33421 ± 0.00033
refractive index (Wavelength=486.1 nm, x2 = 0.9253): 1.33616 ± 0.00033
refractive index (Wavelength=486.1 nm, x2 = 0.9527): 1.33306 ± 0.00032
refractive index (Wavelength=486.1 nm, x2 = 0.9773): 1.3296 ± 0.00032
refractive index (Wavelength=486.1 nm, x2 = 0.989): 1.32836 ± 0.00032
refractive index (Wavelength=486.1 nm, x2 = 0.9964): 1.32731 ± 0.00032
refractive index (Wavelength=546.1 nm, x2 = 0): 1.36127 ± 0.00043
refractive index (Wavelength=546.1 nm, x2 = 0.0423): 1.36116 ± 0.00043
refractive index (Wavelength=546.1 nm, x2 = 0.0424): 1.36107 ± 0.00043
refractive index (Wavelength=546.1 nm, x2 = 0.082): 1.36114 ± 0.00042
refractive index (Wavelength=546.1 nm, x2 = 0.0822): 1.3613 ± 0.00042
refractive index (Wavelength=546.1 nm, x2 = 0.1171): 1.36113 ± 0.00041
refractive index (Wavelength=546.1 nm, x2 = 0.1271): 1.36115 ± 0.00041
refractive index (Wavelength=546.1 nm, x2 = 0.1827): 1.3609 ± 0.0004
refractive index (Wavelength=546.1 nm, x2 = 0.2162): 1.36071 ± 0.0004
refractive index (Wavelength=546.1 nm, x2 = 0.251): 1.36037 ± 0.00039
refractive index (Wavelength=546.1 nm, x2 = 0.3298): 1.36029 ± 0.00038
refractive index (Wavelength=546.1 nm, x2 = 0.3577): 1.36006 ± 0.00038
refractive index (Wavelength=546.1 nm, x2 = 0.4497): 1.35815 ± 0.00037
refractive index (Wavelength=546.1 nm, x2 = 0.4525): 1.35854 ± 0.00037

From the NIST ThermoML archive (doi:10.1016/j.fluid.2014.09.014)
